Some results are limits rather than exact numbers.

In this test the target is T1, MEK1^CA (human GST-MEK1, constitutively active, Ser218Asp and Ser222Asp) (Homo sapiens, UniProt Q02750, S218D/S222D).
T1 construct: GST; made in house; host or cells: Escherichia coli
T1 sequence (Q02750 whole entry S218D/S222D): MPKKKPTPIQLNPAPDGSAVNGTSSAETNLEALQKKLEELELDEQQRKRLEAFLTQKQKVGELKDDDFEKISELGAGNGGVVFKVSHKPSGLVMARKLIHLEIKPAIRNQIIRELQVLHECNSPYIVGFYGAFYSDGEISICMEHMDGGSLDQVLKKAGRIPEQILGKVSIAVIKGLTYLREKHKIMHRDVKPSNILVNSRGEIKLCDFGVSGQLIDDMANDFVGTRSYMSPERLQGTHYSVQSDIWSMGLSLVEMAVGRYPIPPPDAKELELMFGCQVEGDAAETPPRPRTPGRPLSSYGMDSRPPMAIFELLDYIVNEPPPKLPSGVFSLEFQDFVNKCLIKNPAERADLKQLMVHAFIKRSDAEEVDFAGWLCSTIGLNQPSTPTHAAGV
The experiment in a line: MEK1 enzymatic activity assay (MEK1^CA / ERK2 / MBP, [γ-33P]ATP incorporation). Type of test: biochemical. The note with it: Table 1, compounds of formula I; read-out: Avg IC50. A digest of the protocol: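 Cascade assay: 25 µl reactions with 0.002 nmol E. coli-expressed GST-MEK1 S218D/S222D, 0.02 nmol His-tagged mouse ERK2, 0.25 nmol MBP, 0.25 nmol unlabeled ATP and 0.1 µCi [γ-33P]ATP. Compound preincubated 30 min at ambient temperature with MEK1/ERK2; stopped with TCA, 33P-labelled protein filter-captured and scintillation-counted.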
Consider `CC(C)NC(=N)c1c(O)nsc1Nc1ccc(Oc2ccccc2)c(Cl)c1` [compound 286], for which the IC50 was 1 to 100 nM.

Take `CC(C)NC(=N)c1c(O)nsc1Nc1ccc(Oc2cc(F)cc(F)c2)cc1` [compound 287]: the IC50 is 1 to 100 nM. To `Cc1ccc(Cl)c(Oc2ccc(Nc3snc(O)c3C(=N)NC(C)CO)cc2)c1` (stereo not drawn) [compound 288] belongs 1 to 100 nM; to `Cc1cccc(Oc2ccc(Nc3snc(O)c3C(=N)NC(C)CO)cc2)c1` (stereo not drawn) [compound 289], 1 to 100 nM. To `CC(C)NC(=N)c1c(O)nsc1Nc1ccc(Oc2ccccc2Br)c(Cl)c1` [compound 290] belongs 1 to 100 nM; to `Cc1cccc(Oc2ccc(Nc3snc(O)c3C(=N)NC(C)C)cc2)c1` [compound 291], 1 to 100 nM. The result for `Cc1ccc(Cl)c(Oc2ccc(Nc3snc(O)c3C(=N)NC(C)C)cc2)c1` [compound 292] reads 1 to 100 nM; that for `CC(C)NC(=N)c1c(O)nsc1Nc1ccc(Oc2ccccc2Br)cc1` [compound 293], 1 to 100 nM; that for `CC(C)NC(=N)c1c(O)nsc1Nc1ccc(Oc2cc(C(F)(F)F)ccc2Cl)cc1` [compound 294], 100 to 500 nM. `CC(CO)NC(=N)c1c(O)nsc1Nc1ccc(Oc2ccccc2Br)cc1` (stereo not drawn) [compound 295]: the IC50 was 1 to 100 nM. Consider `CC(C)NC(=N)c1c(O)nsc1Nc1ccc(Oc2ccc(F)cc2Cl)cc1` [compound 296], for which the IC50 fell in the range of 100 to 500 nM.

In the case of `CC(C)NC(=N)c1c(O)nsc1Nc1ccc(Oc2ccc(F)cc2Cl)c(Cl)c1` [compound 297], the IC50 lay within 100 to 500 nM. Turning to `CC(C)NC(=N)c1c(O)nsc1Nc1ccc(Oc2ccc(O)cc2)cc1` [compound 298], the IC50 is 100 to 500 nM. Turning to `Cc1ccccc1Oc1ccc(Nc2snc(O)c2C(=N)NC(C)CO)cc1` (stereo not drawn) [compound 300], the IC50 is 1 to 100 nM. With `Cc1ccccc1Oc1ccc(Nc2snc(O)c2C(=N)NC(C)C)cc1` [compound 301], the IC50 fell in the range of 1 to 100 nM.

`CC(CO)NC(=N)c1c(O)nsc1Nc1ccc(Oc2ccccc2F)c(F)c1` (stereo not drawn) [compound 303]: the IC50 was in the range of 1 to 100 nM. Turning to `Cc1ccc(Cl)cc1Oc1ccc(Nc2snc(O)c2C(=N)NC(C)CO)cc1` (stereo not drawn) [compound 304], the IC50 was in the range of 1 to 100 nM. With `CC(CO)NC(=N)c1c(O)nsc1Nc1ccc(Oc2ccccc2)c(F)c1` (stereo not drawn) [compound 306], the IC50 lay within 1 to 100 nM. Consider `CC(C)NC(=N)c1c(O)nsc1Nc1ccc(Oc2ccccc2)c(F)c1` [compound 307], for which the IC50 is 1 to 100 nM. `CC(C)NC(=N)c1c(O)nsc1Nc1ccc(Oc2cc(F)ccc2Cl)cc1` [compound 308]: the IC50 was in the range of 100 to 500 nM. Regarding `CNC(=N)c1c(O)nsc1Nc1ccc(Oc2ccccc2)c(F)c1` [compound 309], the IC50 is more than 500 nM. To `CC(C)NC(=N)c1c(O)nsc1Nc1ccc(Oc2ccccc2F)c(F)c1` [compound 310] belongs 1 to 100 nM; to `Cc1ccc(Cl)cc1Oc1ccc(Nc2snc(O)c2C(=N)NC(C)C)cc1` [compound 311], 100 to 500 nM; to `CC(C)NC(=N)c1c(O)nsc1Nc1ccc(Oc2cc(Cl)ccc2Cl)cc1` [compound 313], more than 500 nM.

Consider `CC(C)NC(=N)c1c(O)nsc1Nc1ccc(-n2cccn2)cc1` [compound 314], for which the IC50 was more than 500 nM. Turning to `CC(CO)NC(=N)c1c(O)nsc1Nc1ccc(-n2cccn2)cc1` (stereo not drawn) [compound 315], the IC50 is more than 500 nM. Consider `Cc1cc(Nc2snc(O)c2C(=N)NC(C)C)ccc1Oc1ccccc1Cl` [compound 316], for which the IC50 was in the range of 1 to 100 nM. With `Cc1cc(Nc2snc(O)c2C(=N)NC(C)C)ccc1Oc1ccccc1` [compound 317], the IC50 was in the range of 100 to 500 nM.

With `CC(C)NC(=N)c1c(O)nsc1Nc1ccc(Oc2c(F)ccc(F)c2Cl)cc1` [compound 318], the IC50 is 100 to 500 nM. `CC(C)NC(=N)c1c(O)nsc1Nc1ccc(Oc2cc(F)ccc2Cl)c(F)c1` [compound 319]: the IC50 was 1 to 100 nM. To `CC(C)NC(=N)c1c(O)nsc1Nc1ccc(Oc2ccc(Cl)cc2Cl)c(F)c1` [compound 320] belongs 1 to 100 nM.

On to `CC(CO)NC(=N)c1c(O)nsc1Nc1ccc(Oc2cc(F)ccc2Cl)c(F)c1` (stereo not drawn) [compound 322], for which the IC50 fell in the range of 1 to 100 nM.

As for `CC(CO)NC(=N)c1c(O)nsc1Nc1ccc(Oc2c(F)ccc(F)c2Cl)cc1` (stereo not drawn) [compound 323], the IC50 was in the range of 100 to 500 nM. Take `Cc1cc(Nc2snc(O)c2C(=N)NC(C)CO)ccc1Oc1ccccc1` (stereo not drawn) [compound 324]: the IC50 is 100 to 500 nM. The result for `Cc1ccccc1Oc1ccc(Nc2snc(O)c2C(=N)NC(C)CO)cc1C` (stereo not drawn) [compound 325] reads more than 500 nM. As to `CC(C)NC(=N)c1c(O)nsc1Nc1ccc(Oc2cccc(F)c2F)cc1` [compound 326], the IC50 lay within 1 to 100 nM. With `CC(C)NC(=N)c1c(O)nsc1Nc1ccc(Oc2cc(F)cc(F)c2Cl)c(F)c1` [compound 328], the IC50 was in the range of 1 to 100 nM. With `CC(C)NC(=N)c1c(O)nsc1Nc1ccc(Oc2cc(F)cc(F)c2Cl)cc1` [compound 329], the IC50 fell in the range of 1 to 100 nM. As for `CC(C)NC(=N)c1c(O)nsc1Nc1ccc(Oc2ccc(Br)cc2)c(F)c1` [compound 330], the 50% inhibitory concentration (IC50) was 1 to 100 nM.

Turning to `CC(C)NC(=N)c1c(O)nsc1Nc1ccc(Oc2cc(C(F)(F)F)cc(C(F)(F)F)c2)cc1` [compound 331], the IC50 was 1 to 100 nM. To `CC(CO)NC(=N)c1c(O)nsc1Nc1ccc(Oc2cc(C(F)(F)F)cc(C(F)(F)F)c2)cc1` (stereo not drawn) [compound 332] belongs 100 to 500 nM; to `CC(CO)NC(=N)c1c(O)nsc1Nc1ccc(Oc2ccc(Br)cc2)c(F)c1` (stereo not drawn) [compound 333], 1 to 100 nM.

Regarding `Cc1cc(Oc2ccccc2)ccc1Nc1snc(O)c1C(=N)NC(C)C` [compound 334], the IC50 was 1 to 100 nM. Regarding `Cc1cc(Oc2ccccc2)ccc1Nc1snc(O)c1C(=N)NC(C)CO` (stereo not drawn) [compound 335], the IC50 is 1 to 100 nM. Consider `CC(C)NC(=N)c1c(O)nsc1Nc1ccc(Oc2cccnc2)c(Cl)c1` [compound 336], for which the IC50 was more than 500 nM.

On to `CC(CO)NC(=N)c1c(O)nsc1Nc1ccc(Oc2ccc(Br)c3ccccc23)cc1` (stereo not drawn) [compound 337], for which the IC50 was in the range of 1 to 100 nM.

Consider `CC(CO)NC(=N)c1c(O)nsc1Nc1ccc(Oc2cccc3ccccc23)cc1` (stereo not drawn) [compound 338], for which the IC50 lay within 1 to 100 nM.

In the case of `CC(C)NC(=N)c1c(O)nsc1Nc1ccc(Oc2ccc(Br)c3ccccc23)cc1` [compound 339], the IC50 was in the range of 1 to 100 nM. The result for `CC(C)NC(=N)c1c(O)nsc1Nc1ccc(Oc2cccc3ccccc23)cc1` [compound 340] reads 1 to 100 nM; that for `CC(C)NC(=N)c1c(O)nsc1Nc1ccc(Oc2cccc(Cl)c2Cl)cc1` [compound 341], 1 to 100 nM. As for `Cc1cccc(Cl)c1Oc1ccc(Nc2snc(O)c2C(=N)NC(C)CO)cc1` (stereo not drawn) [compound 343], the IC50 is more than 500 nM. On to `Cc1cccc(Cl)c1Oc1ccc(Nc2snc(O)c2C(=N)NC(C)C)cc1` [compound 344], for which the IC50 was more than 500 nM. Regarding `Cc1cccc(Oc2ccc(Nc3snc(O)c3C(=N)NC(C)C)cc2)c1C` [compound 345], the IC50 fell in the range of 1 to 100 nM. Turning to `Cc1cccc(Oc2ccc(Nc3snc(O)c3C(=N)NC(C)CO)cc2)c1C` (stereo not drawn) [compound 346], the IC50 fell in the range of 1 to 100 nM. The result for `Cc1ccc(F)c(Oc2ccc(Nc3snc(O)c3C(=N)NC(C)C)cc2)c1` [compound 347] reads 1 to 100 nM; that for `Cc1ccc(F)c(Oc2ccc(Nc3snc(O)c3C(=N)NC(C)CO)cc2)c1` (stereo not drawn) [compound 348], 1 to 100 nM; that for `CC(C)NC(=N)c1c(O)nsc1Nc1ccc(Oc2cc(F)ccc2F)cc1` [compound 349], 1 to 100 nM. For the compound `CC(CO)NC(=N)c1c(O)nsc1Nc1ccc(Oc2cc(F)ccc2F)cc1` (stereo not drawn) [compound 350], the IC50 was 1 to 100 nM. For `CC(C)NC(=N)c1c(O)nsc1Nc1ccc(Oc2cccc(C(F)(F)F)c2F)cc1` [compound 353], the IC50 was in the range of 1 to 100 nM. `CC(C)NC(=N)c1c(O)nsc1Nc1ccc(Oc2cc(C(F)(F)F)ccc2F)cc1` [compound 355]: the IC50 lay in the range of 1 to 100 nM. To `CC(C)NC(=N)c1c(O)nsc1Nc1ccc(Oc2ccccc2F)cc1` [compound 356] belongs 1 to 100 nM.

Take `CC(C)NC(=N)c1c(O)nsc1Nc1ccc(Oc2ccc(F)cc2F)cc1` [compound 357]: the IC50 lay within 1 to 100 nM. To `CC(C)NC(=N)c1c(O)nsc1Nc1ccc(Oc2cc(F)cc(C(F)(F)F)c2)cc1` [compound 358] belongs 100 to 500 nM.

As for `CC(CO)NC(=N)c1c(O)nsc1Nc1ccc(Oc2ccc(Cl)cc2)c(Cl)c1` (stereo not drawn) [compound 359], the IC50 was in the range of 100 to 500 nM.

As to `CC(C)NC(=N)c1c(O)nsc1Nc1ccc(Oc2ccc(Cl)cc2)c(Cl)c1` [compound 361], the IC50 was 100 to 500 nM. `CC(CO)NC(=N)c1c(O)nsc1Nc1ccc(Oc2cccc(F)c2)c(F)c1` (stereo not drawn) [compound 362]: the IC50 lay in the range of 1 to 100 nM.

Take `CC(C)NC(=N)c1c(O)nsc1Nc1ccc(Oc2cccc(F)c2)c(F)c1` [compound 363]: the IC50 was more than 500 nM. As to `CC(C)NC(=N)c1c(O)nsc1Nc1ccc(Oc2cccc(C(F)(F)F)c2Cl)c(Cl)c1` [compound 364], the IC50 is 1 to 100 nM. The result for `CC(C)NC(=N)c1c(O)nsc1Nc1ccc(Oc2cccc(Cl)c2F)cc1` [compound 366] reads 1 to 100 nM. The result for `CC(C)NC(=N)c1c(O)nsc1Nc1ccc(Oc2cc(Cl)ccc2Cl)c(F)c1` [compound 367] reads 1 to 100 nM; that for `CC(C)NC(=N)c1c(O)nsc1Nc1ccc(Oc2ccc(F)cc2Cl)c(F)c1` [compound 369], 1 to 100 nM; that for `CC(CO)NC(=N)c1c(O)nsc1Nc1ccc(Oc2ccc(F)cc2Cl)c(F)c1` (stereo not drawn) [compound 370], 1 to 100 nM. To `CC(CO)NC(=N)c1c(O)nsc1Nc1ccc(Oc2ccccc2F)cc1` (stereo not drawn) [compound 372] belongs 100 to 500 nM; to `CC(C)NC(=N)c1c(O)nsc1Nc1ccc(Oc2cccc(C(F)(F)F)c2Cl)c(F)c1` [compound 373], 1 to 100 nM. Regarding `CC(CO)NC(=N)c1c(O)nsc1Nc1ccc(Oc2ccc(Cl)cc2Cl)c(F)c1` (stereo not drawn) [compound 374], the IC50 fell in the range of 1 to 100 nM.

One may read the IC50 as the concentration at which inhibition is half-maximal.

The values above are taken from patent US7652047B2, “Phenylamino isothiazole carboxamidines as MEK inhibitors” (Ardea Biosciences, Inc., priority 2005, dated 2010).
